Consider one molecule from patent US8383642B2, “Spiropiperidine compounds” (Eli Lilly and Company, priority 2009, dated 2013).

Type in all cases: cell-based
In assay [1] the target is T1, human GPR40 (Homo sapiens, UniProt O14842).
T1 construct: expressed in transfected cells; host or cells: HEK293
In words: Calcium Flux Primary Assay. The method, then:
HEK293 cells over expressing the human GPR40 cDNA maintained in Dulbecco's modified Eagle's medium with F12 medium in 3:1 ratio supplemented with 10% FBS and 800 μg/ml geneticin at 37° C. and 5% CO2 are employed for the study. Agonist assays are performed using a Calcium 4 Dye assay kit (Molecular Devices) in the presence (0.1%) or absence of fatty acid free BSA in the assay buffer (1×HBSS (Hank's Balanced Salt Solution) & 20 mM HEPES (4-(2-hydroxyethyl)-1-piperazineethanesulfonic acid). Receptor activation is measured as an increase in intracellular calcium using the Fluorometric Imaging Plate Reader (FLIPR). Maximum change in fluorescence over the base line is used to determine agonist response. EC50 (effective concentration at half the maximal response) value of the compound is calculated using Excel Fit software (version 4; IDBS) by plotting concentration vs relative fluorescence units (RFUs).

In assay [2] the test system is pancreatic islets. The assay is described as follows: GDIS assay, primary rodent pancreatic islets of Langerhans. The settings on record: different concentrations; compared to 11.2 mM glucose alone; 90 minutes; SD rat islets. An excerpt:
Because activation of GPR40 is known to result in insulin secretion which is dependent on high glucose concentrations, two separate assay systems (insulinoma cell line and primary rodent islets) are developed to further characterize compounds that are known to increase intracellular calcium in the GPR40 primary assay discussed above.
GDIS assays using primary rodent pancreatic islets of Langerhans are also used to characterize exemplified compounds. Pancreatic islets are isolated from male SD (Sprague Dawley) rats by collagenase digestion and Histopaque density gradient separation. The islets are cultured overnight in RPMI-1640 medium with GlutaMAXn (stabilized, dipeptide form of L-glutamine (Invitrogen catalog #61870-010)) to facilitate recovery from the isolation process. Insulin secretion is determined by a 90 minute incubation in EBSS (Earle's Balances Salt Solution) buffer in a 48-well plate. Briefly, islets are first preincubated in EBSS with 2.8 mM glucose for 30 min and are then transferred to a 48-well plate (four islets/well) containing 150 μl 2.8 mM glucose and incubated with 150 μl of EBSS with 2.8 or 11.2 mM glucose in the presence or absence of test compounds for 90 minutes. The buffer is removed from the wells at the end of the incubation and assayed for insulin levels using the Rat Insulin ELISA kit (Mercodia). […]

Assay [3] concerns the target T2, PPARγ (Homo sapiens, UniProt P37231).
T2 sequence (P37231 1-505): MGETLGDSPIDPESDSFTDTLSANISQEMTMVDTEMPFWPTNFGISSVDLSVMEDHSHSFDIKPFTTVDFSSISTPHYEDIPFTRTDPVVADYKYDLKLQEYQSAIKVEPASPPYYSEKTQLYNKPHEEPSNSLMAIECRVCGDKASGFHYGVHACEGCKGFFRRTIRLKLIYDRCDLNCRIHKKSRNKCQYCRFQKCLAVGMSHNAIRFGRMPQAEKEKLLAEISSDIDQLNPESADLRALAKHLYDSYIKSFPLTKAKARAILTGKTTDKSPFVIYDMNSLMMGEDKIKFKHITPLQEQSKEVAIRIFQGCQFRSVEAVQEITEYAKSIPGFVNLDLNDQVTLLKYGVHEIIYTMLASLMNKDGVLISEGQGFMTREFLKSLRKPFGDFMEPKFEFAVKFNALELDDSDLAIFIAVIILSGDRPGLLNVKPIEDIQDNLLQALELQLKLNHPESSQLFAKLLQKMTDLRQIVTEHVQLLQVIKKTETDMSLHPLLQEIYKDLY
T2 sequence (P19793 1-462 partner): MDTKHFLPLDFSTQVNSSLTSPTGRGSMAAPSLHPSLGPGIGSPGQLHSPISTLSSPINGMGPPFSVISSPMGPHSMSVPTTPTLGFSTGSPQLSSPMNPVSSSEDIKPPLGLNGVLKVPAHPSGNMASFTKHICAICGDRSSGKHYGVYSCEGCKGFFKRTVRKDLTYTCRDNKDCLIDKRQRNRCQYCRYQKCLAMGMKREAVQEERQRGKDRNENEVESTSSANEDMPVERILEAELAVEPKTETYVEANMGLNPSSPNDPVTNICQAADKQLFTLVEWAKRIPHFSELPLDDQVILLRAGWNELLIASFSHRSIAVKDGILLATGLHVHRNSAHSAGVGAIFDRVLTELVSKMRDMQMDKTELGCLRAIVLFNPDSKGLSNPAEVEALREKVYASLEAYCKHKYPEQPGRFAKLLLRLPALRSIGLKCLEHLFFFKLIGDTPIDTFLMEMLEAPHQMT
The assay is described as follows: PPARγ reporter functional assay (CTF). The settings on record: examined up to 10 μM; CV1 cells; luciferase. An excerpt:
Gal4 PPARα, Gal4 PPARδ, and PPARγ reporter functional assays are also used to monitor the selectivity of exemplified compounds. CV1 cells, which are derived from the renal tissue of an African green monkey, are transfected with various receptor and reporter plasmids using Fugene. For the Gal4 PPARα and PPARδ assays, a reporter plasmid containing five tandem copies of the yeast transcription protein Gal4 response element, cloned upstream of a firefly luciferase gene driven by the major late promoter of adenovirus, is transfected together with a Simian Virus 40 (SV40) driven plasmid constitutively expressing a hybrid protein containing the Gal4 DNA binding domain (DBD), and either the PPARα or PPARδ ligand binding. For the PPARγ assay, plasmids encoding PPARγ and RXRα, both driven by a cytomegalovirus (CMV) promoter are transfected together with a plasmid containing luciferase reporter cDNA driven by the TK promoter and a receptor response element (2×PPRE). Cells are transfected in T225 cm^2 cell culture flasks in DMEM media with 5% charcoal-stripped FBS. […] After 24 hours incubation with compounds, cells are lysed and luciferase activity is determined as a measure of receptor activation by luminescence. […] The maximum percent stimulation is determined versus maximum stimulation obtained with 10 μM of an appropriate PPAR agonist reference compound. […]

T1 sequence (O14842 whole entry): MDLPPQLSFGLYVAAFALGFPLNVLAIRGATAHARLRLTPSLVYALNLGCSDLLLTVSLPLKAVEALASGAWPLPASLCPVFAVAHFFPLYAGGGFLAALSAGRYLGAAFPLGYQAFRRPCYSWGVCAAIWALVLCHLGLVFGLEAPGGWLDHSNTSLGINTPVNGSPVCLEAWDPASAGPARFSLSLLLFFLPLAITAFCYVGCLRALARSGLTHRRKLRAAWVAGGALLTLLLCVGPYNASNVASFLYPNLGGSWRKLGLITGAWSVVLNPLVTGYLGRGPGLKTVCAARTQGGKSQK

In general, EC50 refers to the concentration at which the effect is half-maximal. With `CC#C[C@@H](CC(=O)O)c1ccc(OCc2ccc(CN3CCC4(C=Cc5ccccc54)CC3)cc2)cc1` [Example 1, (3S)-3-(4-{[4-(1′H-Spiro[indene-1,4′-piperidin]-1′-ylmethyl)benzyl]oxy}phenyl)hex-4-ynoic acid], the EC50 in assay [1] (HEK293 cells over expressing human GPR40, FLIPR calcium) is 186 nM. Besides, the efficacy in assay [1] (maximal response compared to the natural ligand, linoleic acid) is 91+/−10%. Further, in assay [2], the increase in insulin was 2- to 4 fold. Moreover, in assay [3], the functional activation entry is “No functional activation”.
